Here are results for four molecules from patent US4962113A, “Pyridinium derivatives, their production and use” (Takeda Chemical Industries, Ltd, priority 1987, dated 1990).

Read-outs that look alike come from different tables or passages of the source.

Data set [1] deals with PAF-induced bronchoconstriction. Nature of the data set: PAF inhibitory action in bronchoconstriction. The class given is in vivo, guinea pig (Hartley). To be noted: oral, 30 mg/kg, one hour before PAF (0.3 μg/kg i.v.). The method, then:
Female and male Hartley guinea pigs weighing about 400 g were fixed on the dorsal position under anesthesia with an ethylcarbamate (1.5 g/kg, intraperitoneally). One leg of a cannula (4 legs) was inserted into the trachea, and two of the remaining three legs were connected to an artificial respirator (Harvard apparatus rodent respirator). The remaining one leg (side tube) was connected to a bronchospasm transducer 7020 (Ugobasile).
While the air volume per ventilation was adjusted to 5 to 7 ml and the air ventilation rate was controlled at 70 times/min., with a load pressure to the lung set at 10 cm H2 O, the overflown air volume was recorded on Rectigraph (Rectigraph-8S, San-ei Seiki Inc.) through a transducer. After 1 mg/kg of gallamine triethodide was given intravenously to the animals, histamine dihydrochloride (10 μg/kg) was applied intravenously to examine reaction of the animals. PAF(0.3 μg/kg) was administered intravenously, and, 30 sec. later, maximum bronchoconstriction was observed. Under these conditions, bronchoconstriction activity of the test samples was examined. The test sample was suspended in a 5% gum arabic solution, and given orally one hour before the administration of PAF. The compounds obtained in Production Examples 3 and 4 inhibited PAF-induced bronchoconstriction by oral administration (30 mg/kg).

Data set [2] has as its system platelet aggregation (PAF). Nature of the data set: Inhibitory action on PAF-induced rabbit platelet aggregation. It is filed as cell-based. As to conditions: Oryctolagus cuniculus, read-out: inhibitory percentage (platelet aggregation); for inhibition at 3 µM: 3 × 10^-6 M; for inhibition at 0.3 µM: 3 × 10^-7 M; for inhibition at 0.03 µM: 3 × 10^-8 M. The essentials:
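Male rabbit citrated PRP, adjusted with PPP to about 500,000 platelets/μl, was stirred 2 min at 37 °C, then with test sample for 2 min before PAF addition. Aggregation was followed by aggregometry as maximum percent light transmission.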

The nature of data set [3]: Acute Toxicity Test. As to conditions: oral, 1000 mg/kg, until after one week. It is filed as in vivo. As to the method:
Male Jcl-ICR mice (5 wk) were used in groups of five individuals. The animals of the respective groups were orally administered with the compounds (227), (236) and (303) respectively produced in Production Examples 87, 90 and 109 at the dose of 1000 mg/kg.

Data set [4] deals with PAF-induced hypotension. Briefly: Inhibitory action on PAF-induced hypotension in rats. It is filed as in vivo, rat (Sprague-Dawley). As to conditions: Rattus norvegicus, read-out: Inhibitory Rate (Lowering of Blood Pressure); for inhibition in vivo at 0.01 mg/kg / inhibition in vivo at 0.03 mg/kg / inhibition in vivo at 0.1 mg/kg: iv; for inhibition in vivo at 1 mg/kg / inhibition in vivo at 3 mg/kg / inhibition in vivo at 10 mg/kg: oral. The essentials:
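Male Sprague-Dawley rats of about 250 g had cannulas placed in the femoral artery, for blood pressure recording via a pressure transducer, and in the femoral vein, for drug dosing. The hypotensive response to intravenous PAF (1 μg/kg) was measured first. Test samples were then given intravenously or orally, and PAF was given again. Percent inhibition compares the PAF-induced pressure drop (Δ mmHg) after treatment with the drop before treatment.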

Data set [5] has as its system Reversed Passive Arthus reaction. Nature of the data set: Reversed Passive Arthus reaction. As to conditions: oral, 6.25 mg/kg, one hour before antigen. The class given is in vivo, rat (Sprague-Dawley). The method, then: Under ether anesthesia, the hair of the back of Sprague-Dawley male rats (7-week old, about 250 g body weight) was cut, and 0.5 ml of a 5% solution of gum arabia of a test compound relative to 100 g of the body weight of the animals was orally administered (one hour before injection of antigen). An antigen, egg albumin dissolved in physiological saline (5 mg/kg) was administered through the tail vein. Immediately, 0.1 ml each of a rabbit anti-egg albumin serum (containing 6 mg protein antibody/ml) was administered intracutaneously at one spot each of left- and right-hand sides of the back of rats. Three hours later, 1 ml of physiological saline containing 1% of Evans blue was given intravenously, and 30 minutes later, the skin of the animals was excised, and the area (mm^2) of blue spots was measured. The results were compared with those of the control group, and the inhibitory ratio was determined.

Turning to `CCCCCCCCCCCCCCCCCCNC(=O)OCC(COC(=O)NCCN(C(=O)c1cc(Br)c[n+](CC)c1)c1ccccc1)OC` (stereo not shown) [Production Example 3, 5-bromo-3-[N-[2-(2-methoxy-3-octadecylcarbamoyloxyproxycarbonyl)]aminoethyl-N-phenyl]carbamoyl-1-ethyl pyridinium iodide], the “inhibition of PAF-induced bronchoconstriction” value in data set [1] is reported as 64.9%.
As for `CCC[n+]1cc(Br)cc(C(=O)N(CCC(=O)NCCOC(=O)Nc2cccc3ccccc23)c2ccccc2)c1` [Production Example 90, 5-bromo-3-[N-[2-[2-(1-naphthylcarbamoyloxy)ethyl]carbamoyl]ethyl-N-phenyl]carbamoyl-1-propylpyridinium chloride], in data set [2], the inhibition at 3 µM worked out at 100%, the inhibition at 0.3 µM amounted to 100% and the inhibition at 0.03 µM came to 16%. Also, the death of mice entry in data set [3] is “No death of mice was observed”. In addition, in data set [4] (1 hr.), the inhibition in vivo at 0.01 mg/kg worked out at 58%, the inhibition in vivo at 0.03 mg/kg is 83%, the inhibition in vivo at 1 mg/kg was 69% and the inhibition in vivo at 3 mg/kg was found to be 96%. Further, in data set [4] (2 hr.), the inhibition in vivo at 0.01 mg/kg was 36%, the inhibition in vivo at 0.03 mg/kg is 64%, the inhibition in vivo at 1 mg/kg came out at 68% and the inhibition in vivo at 3 mg/kg came to 99%. Besides, in data set [4] (4 hr.), the inhibition in vivo at 0.01 mg/kg was 17%, the inhibition in vivo at 0.03 mg/kg was determined as 51%, the inhibition in vivo at 1 mg/kg turned out to be 78% and the inhibition in vivo at 3 mg/kg is 94%. Besides, in data set [4] (6 hr.), the inhibition in vivo at 0.01 mg/kg came to 10%, the inhibition in vivo at 0.03 mg/kg came to 36%, the inhibition in vivo at 1 mg/kg amounted to 71% and the inhibition in vivo at 3 mg/kg was determined as 87%. Besides, in data set [4] (8 hr.), the inhibition in vivo at 0.01 mg/kg was found to be 1%, the inhibition in vivo at 0.03 mg/kg is 23%, the inhibition in vivo at 1 mg/kg was 60% and the inhibition in vivo at 3 mg/kg worked out at 81%. In data set [4] (5 min, i.v., 5 min.), the inhibition in vivo at 0.01 mg/kg came to 69% and the inhibition in vivo at 0.03 mg/kg worked out at 100%.
With `CCC[n+]1cc(Br)cc(C(=O)N(CCOC(=O)NCCOC(=O)Nc2cccc3ccccc23)c2ccccc2)c1` [Production Example 10, 5-bromo-3-[N-[2-[2-(1-naphthylcarbamoyloxy)ethyl]carbamoyloxy]ethyl-N-phenyl]carbamoyl-1-propylpyridinium chloride], in data set [5], the preventive ratio was 57%. Also, in data set [2], the inhibition at 3 µM came to 100% and the inhibition at 0.3 µM stood at 91%. In addition, in data set [4] (1 hr.), the inhibition in vivo at 0.01 mg/kg amounted to 65%, the inhibition in vivo at 0.03 mg/kg was 97%, the inhibition in vivo at 0.1 mg/kg stood at 100% and the inhibition in vivo at 1 mg/kg turned out to be 33%. In data set [4] (1 hr.), the inhibition in vivo at 3 mg/kg was found to be 79% and the inhibition in vivo at 10 mg/kg was determined as 96%. Besides, in data set [4] (2 hr.), the inhibition in vivo at 0.01 mg/kg stood at 60%, the inhibition in vivo at 0.03 mg/kg is 84%, the inhibition in vivo at 0.1 mg/kg worked out at 94% and the inhibition in vivo at 1 mg/kg is 51%. Further, in data set [4] (2 hr.), the inhibition in vivo at 3 mg/kg was determined as 83% and the inhibition in vivo at 10 mg/kg stood at 96%. Also, in data set [4] (4 hr.), the inhibition in vivo at 0.01 mg/kg came out at 53%, the inhibition in vivo at 0.03 mg/kg was 65%, the inhibition in vivo at 0.1 mg/kg stood at 89% and the inhibition in vivo at 1 mg/kg was 56%. In data set [4] (4 hr.), the inhibition in vivo at 3 mg/kg was determined as 87% and the inhibition in vivo at 10 mg/kg was 96%. In data set [4] (6 hr.), the inhibition in vivo at 0.01 mg/kg worked out at 47%, the inhibition in vivo at 0.03 mg/kg was found to be 55%, the inhibition in vivo at 0.1 mg/kg came out at 81% and the inhibition in vivo at 1 mg/kg came to 59%. Besides, in data set [4] (6 hr.), the inhibition in vivo at 3 mg/kg was found to be 83% and the inhibition in vivo at 10 mg/kg is 93%. In data set [4] (8 hr.), the inhibition in vivo at 0.01 mg/kg came out at 36%, the inhibition in vivo at 0.03 mg/kg was determined as 47%, the inhibition in vivo at 0.1 mg/kg came to 76% and the inhibition in vivo at 1 mg/kg came out at 47%. For the same molecule, in data set [4] (8 hr.), the inhibition in vivo at 3 mg/kg came out at 81% and the inhibition in vivo at 10 mg/kg was 90%. For the same molecule, in data set [4] (5 min, i.v., 5 min.), the inhibition in vivo at 0.01 mg/kg worked out at 79%, the inhibition in vivo at 0.03 mg/kg came out at 100% and the inhibition in vivo at 0.1 mg/kg was 100%.
Consider `CCCCCCCCCCCCOCCOCCOC(=O)NCCN(C(=O)c1cc(Br)c[n+](CC)c1)c1ccccc1` [Production Example 4, 5-bromo-3-[N-[2-[2-(2-dodecyloxyethoxy)ethoxycarbonyl]]aminoethyl-N-phenyl]carbamoyl-1-ethylpyridinium iodide], for which the “inhibition of PAF-induced bronchoconstriction” value in data set [1] was 59.9%. Also, in data set [2], the inhibition at 3 µM stood at 100%, the inhibition at 0.3 µM came out at 100% and the inhibition at 0.03 µM was 100%.
